Measurements reported in US20210317141A1, “OXOPYRIDO[1,2-A]PYRIMIDINE COMPOUNDS FOR THE TREATMENT AND PROPHYLAXIS OF BACTERIAL INFECTION” (Hoffmann-La Roche Inc., priority 2018, published 2021).
≈ marks a conversion by molar mass, not a printed value.

Tests used:
E. coli (ATCC 25922) = assay: Minimal Inhibitory Concentration (MIC) assay; assay type: cell-based; settings: Escherichia coli, ATCC25922; CAMHB, 20 hours at 35° C.; read-out: MIC (μg/mL) E. coli ATCC 25922
Experimental: The in vitro potency of compounds to inhibit E. coli (ATCC 25922) growth was assessed by MIC (Minimal Inhibitory Concentration) assay. Samples were prepared from 10 mM DMSO stock solutions. After serial 2-fold dilution in DMSO in a master plate (Greiner, Cat No: 651201), 180 μL sterile distilled water was added to 20 μL each aliquot of the samples. Then […], diluted compounds were transferred into a new assay plate (Costar, 3599).
The growth medium […] Mueller Hinton Broth (CAMHB) was prepared by adding the 20 mg per liter CaCl2) and 20 mg per liter MgCl2 into the MHB medium (Jianglai Company, sterilized).
Vials of each of the test microorganisms were maintained frozen in the vapor phase of a liquid nitrogen freezer. Took out the bacteria E. coli ATCC 25922 (KWIKSTIK, 0335K) from liquid nitrogen freezer, thawed it in room temperature, and diluted the bacterial in the CAMHB medium to achieve a final inoculum of 5×10^5 CFU/mL. 90 μL CAMHB with bacteria was dispensed to the assay plate and pipetted 5 times.
Then the assay plates were incubated for 20 hours at 35° C. in ambient air. Following incubation, the MIC (μg/mL), the lowest concentration of drug that inhibits visible growth of the microorganism was read and recorded throw the microscope.

E. coli (BW25113) = assay: 50% growth inhibitory concentration (IC50) determination assay, E. coli; assay type: cell-based; settings: Escherichia coli, growth inhibition, Iso-Sensitest broth, OD 600 nm over 16 h, 35±2° C., read-out: IC50 (μM) E. coli K12 BW25113
Experimental: (§1) The in vitro antimicrobial activity of the compounds against E. coli (BW25113, obtained from Coli Genetic Stock Center, #7636) and K. pneumoniae (ATCC10031) was determined according to the following procedure:
(§2) The assay used a 10-points Iso-Sensitest broth medium to measure quantitatively the in vitro activity of the compounds against E. coli BW25113 and K. pneumoniae ATCC 10031.
(§3) Stock compounds in DMSO were serially two-fold diluted (range from 50 to 0.097 μM final concentration) in 384 wells microtiter plates and inoculated with 49 μL the bacterial suspension in Iso-Sensitest broth medium to have a final cell concentration of ˜5×10^5 CFU/mL in a final volume/well of 50 μL/well. Microtiter plates were incubated at 35±2° C.
(§4) Bacterial cell growth was determined with the measurement of optical density at k=600 nm each 20 minutes over a time course of 16 h.
(§5) Growth inhibition was calculated during the logarithmic growth of the bacterial cells with determination of the concentration inhibiting 50% (IC50) of the growth.

[1] = Lyophilisation solubility assay (LYSA); assay type: physicochemical; settings: aqueous buffer, thermodynamic from solid; 0.05 M phosphate buffer, pH 6.5; * = detection limit
Experimental: The solubility of compounds of present invention was assessed by LYSA assay. Samples were prepared in duplicate from 10 mM DMSO stock solutions (20 μL) diluted in 30 μL pure DMSO. After evaporation of DMSO with a centrifugal vacuum evaporator, the residue was dissolved in 0.05 M phosphate buffer (150 μL, pH 6.5), stirred for one hour and shook for two hours. After one night, the solution was filtered using a microtiter filter plate. Then the filtrate and its 1/10 dilution were analyzed by HPLC-UV. In addition, a four-point calibration curve was prepared from the 10 mM stock solutions and used for the solubility determination of the compounds.

[2] = Cytotoxicity assay (HepG2, CellTiter-Blue); assay type: cell-based; settings: human, HepG2 cells, 3 days treatment
Experimental: The cytotoxicity of compounds of present invention was assessed by HepG2 assay. HepG2 cells (ATCC HB-8065™) were seeded into 96-well plates (1.2×10^4 cells per well) and treated with compounds for 3 days, cell viability was measured at day 3 post compound treatment using the CellTiter-Blue® Cell Viability Assay (Promega, Cat. No. G8082). 20 μL of Cell titer blue buffer were added to each well of the cells, incubated for 3 hours at 37° C., and the fluorescence value was measured by a plate reader (Molecular Device SpectraMax M2). The CC50 value of each compound is plotted with GraphPad Prism using four parameter logistic equation.

[3] = tested on: K. pneumoniae (ATCC10031); assay: 50% growth inhibitory concentration (IC50) determination assay, K. pneumoniae; assay type: cell-based; settings: Klebsiella pneumoniae, growth inhibition, Iso-Sensitest broth, OD 600 nm over 16 h, * = detection limit
Experimental: as §1, §2, §3, §4, §5

| MIC (E. coli (ATCC 25922)) [µg/mL] | IC50 (E. coli (BW25113)) [µM] | solubility thermodynamic [1] [µg/mL] | IC50 [3] [µM] | Structure (SMILES) | CC50 at 3 days [2] [µM] |
| --- | --- | --- | --- | --- | --- |
| 0.0183 (≈ 0.0394 µM) | 0.906 | 30 (≈ 64.6 µM) |  | CNc1cc(F)c(F)c2c1[nH]c1ncc(-c3ccc4ncc(C(=O)O)c(=O)n4c3)c(N(C)C)c12 [Example 1.01, 7-[4-(Dimethylamino)-5,6-difluoro-8-(methylamino)-9H-pyrido[2,3-b]indol-3-yl]-4-oxo-pyrido[1,2-a]pyrimidine-3-carboxylic Acid] | 45.9 |
| 0.682 (≈ 1.38 µM) | 2.71 | 54 (≈ 109 µM) | 0.114 | CNc1cc(F)c(F)c2c1[nH]c1ncc(-c3cc(OC)c4ncc(C(=O)O)c(=O)n4c3)c(N(C)C)c12 [Example 1.03, 7-[4-(Dimethylamino)-5,6-difluoro-8-(methylamino)-9H-pyrido[2,3-b]indol-3-yl]-9-methoxy-4-oxo-pyrido[1,2-a]pyrimidine-3-carboxylic acid] | > 100 |
| 0.576 (≈ 1.25 µM) | 2.06 |  | 0.221 | CNc1cc(F)cc2c1[nH]c1ncc(-c3cc(C)c4ncc(C(=O)O)c(=O)n4c3)c(N(C)C)c12 [Example 1.05, 7-[4-(Dimethylamino)-6-fliioro-8-(methylamino)-9H-pyrido[2,3-b]indol-3-yl]-9-methyl-4-oxo-pyrido[1,2-a]pyrimidine-3-carboxylic acid] | 34 |
| 0.808 (≈ 1.52 µM) | 2.57 |  | 0.284 | CNc1cc(F)c(F)c2c1[nH]c1ncc(-c3ccc4ncc(C(=O)O)c(=O)n4c3)c(N(C)CC(F)(F)F)c12 [Example 1.09, 7-(5,6-Difluoro-4-(methyl(2,2,2-trifluoroethyl)amino)-8-(methylamino)-9H-pyrido[2,3-b]indol-3-yl)-4-oxo-4H-pyrido[1,2-a]pyrimidine-3-carboxylic acid] | 33.5 |
| 0.017 (≈ 0.0336 µM) | 3.58 | 63 (≈ 124 µM) | ≤ 0.098 | CNc1cc(F)c(F)c2c1[nH]c1ncc(-c3ccc4ncc(C(=O)O)c(=O)n4c3)c(N3CCOCC3)c12 [Example 1.10, 7-(5,6-Difluoro-8-(methylamino)-4-morpholino-9H-pyrido[2,3-b]indol-3-yl)-4-oxo-4H-pyrido[1,2-a]pyrimidine-3-carboxylic acid] | > 100 |
| 0.0212 (≈ 0.0456 µM) | 0.442 |  | ≤ 0.098 | CNc1c(F)c(F)cc2c1[nH]c1ncc(-c3ccc4ncc(C(=O)O)c(=O)n4c3)c(N(C)C)c12 [Example 1.12, 7-(4-(Dimethylamino)-6,7-difluoro-8-(methylamino)-9H-pyrido[2,3-b]indol-3-yl)-4-oxo-4H-pyrido[1,2-a]pyrimidine-3-carboxylic] | 29.9 |
| 0.0909 (≈ 0.179 µM) | 2.86 | 162 (≈ 320 µM) | ≤ 0.098 | CNc1c(F)c(F)cc2c1[nH]c1ncc(-c3ccc4ncc(C(=O)O)c(=O)n4c3)c(N3CCOCC3)c12 [Example 1.13, 7-(6,7-Difluoro-8-(methylamino)-4-morpholino-9H-pyrido[2,3-b]indol-3-yl)-4-oxo-4H-pyrido[1,2-a]pyrimidine-3-carboxylic acid] | 80.1 |
|  | 8.58 | 315 (≈ 559 µM) | 0.197 | CNc1cc(F)c(F)c2c1[nH]c1ncc(-c3cc(CN(C)C)c4ncc(C(=O)O)c(=O)n4c3)c(N3CCOCC3)c12 [Example 1.14, 7-(5,6-Difluoro-8-(methylamino)-4-morpholino-9H-pyrido[2,3-b]indol-3-yl)-9-((dimethylamino)methyl)-4-oxo-4H-pyrido[1,2-a]pyrimidine-3-carboxylic acid] | > 100 |
| 0.398 (≈ 0.704 µM) |  | 200 (≈ 354 µM) |  | CNc1cc(F)c(F)c2c1[nH]c1ncc(-c3ccc4ncc(C(=O)O)c(=O)n4c3)c(N3CCC(F)(CN(C)C)C3)c12 (centres unmarked) [Example 1.18, 7-(4-(3-((Dimethylamino)methyl)-3-fluoropyrrolidin-1-yl)-5,6-difluoro-8-(methylamino)-9H-pyrido[2,3-b]indol-3-yl)-4-oxo-4H-pyrido[1,2-a]pyrimidine-3-carboxylic acid] | > 100 |
|  | 2.23 | 22 (≈ 43.3 µM) | 0.105 | CNc1cc(F)c(F)c2c1[nH]c1ncc(-c3ccc4ncc(C(=O)O)c(=O)n4c3)c(N(C)CCOC)c12 [Example 1.24, 7-(5,6-Difluoro-4-((2-methoxyethyl)(methyl)amino)-8-(methylamino)-9H-pyrido[2,3-b]indol-3-yl)-4-oxo-4H-pyrido[1,2-a]pyrimidine-3-carboxylic acid] | 71 |
| 0.127 (≈ 0.293 µM) | 0.17 | < 1 | ≤ 0.098 | CNc1cc(F)cc2c1[nH]c1nc(Oc3cnc(C)nc3)nc(N3C[C@H]4C[C@@H]3C[C@H]4C)c12 [GP-6, reference compound] | 5.6 |
